Measured values reported in patent US20220259221A1, “CANNABINOID DERIVATIVES” (CANOPY GROWTH CORPORATION, priority 2019, published 2022).

Experiments:
human CB2 receptor = biological target: T1, human CB2 receptor (Homo sapiens, UniProt P34972); assay: CB2 radioligand ([3H]CP55,940) competitive binding assay; settings: for Selectivity CB2: fold difference in binding between CB1 and CB2, shown in the column of the receptor with higher affinity, 1.00 in both = about the same affinity
T1 construct: host or cells: CHO-K1 (Chinese hamster ovary) cells, stably transfected; membranes prepared in house
Experimental: Compounds of the present disclosure were tested for CB1 receptor binding affinity and for CB2 receptor binding affinity. As used herein, “binding affinity” is represented by the IC50 value, which was experimentally determined as described herein. The lower the IC50 value the higher the binding affinity. A compound of the present disclosure may be said to have “binding selectivity” if it has a higher binding affinity for one receptor compared to the other.
The membranes were prepared from CHO-K1 (Chinese hamster ovary) cells stably transfected with the human CB2 receptor (Cat. #ES-111-C; Perkin Elmer, Boston, Mass.). The cells were grown adherently and maintained in Ham's F12 medium containing 10% fetal bovine serum (FBS), penicillin, streptomycin and geneticin (G418) at 37° C. in a humid atmosphere of 5% CO2 following the manufacturer's instructions.
For membrane preparation the cells were washed with PBS and scraped off the plates in cold homogenization buffer (25 mM HEPES (pH 7.4), 2 mM EDTA) containing protease inhibitor cocktail (Sigma Cat. #P8340). The cell suspension was homogenized with a Pro-PK-01200D Polytron Homogenizer (Pro Scientific) and then centrifuged for 30 min at 120,000× g. The supernatant was discarded and the pellet was re-suspended in the homogenization buffer and stored at −80° C. until the time of use.
In this experiment, 3H radiolabeled CP55,940, i.e. [3H]CP55,940 (Perkin Elmer, Boston, Mass.), was used as a radioligand for the CB2 receptor to determine the binding affinity of compounds for the CB2 receptor (Scheme 4; above).
The competition binding experiments (single dose and dose-response) were performed by incubating 0.6 nM of [3H]CP55,940 (specific activity 101 Ci/mmol, Perkin Elmer) and different concentrations of compounds disclosed herein with membranes prepared as above from CHO-K1 cells expressing human CB2 receptor (1 μg of protein/well), 50 mM Tris-HCl (pH 7.4), 5 mM MgCl2, 1 mM CaCl2, and 2 mg/mL BSA.
For the single dose experiments, the compound stocks (usually 10 mM in DMSO) were diluted to working stocks in the binding buffer to give the final compound concentrations of 10 μM and 1 μM. For the dose-response experiments the test compounds were sequentially diluted to provide the desired concentration range for the IC50 determination. In each case the compounds were pre-incubated with the membrane for 20 min, before adding the radioligand.
After incubation with the radioligand for 60 min at 37° C., the incubation was terminated by rapid filtration of assay mixture through MultiScreen®HTS^+ 96-well filter plates (Millipore, Cat. #MSFCNXB), pre-soaked for 60 min with 50 mM Tris-HCl (pH 7.4) containing 0.33% polyethylenimine (PEI). The nonspecific binding (NSB) was determined in the presence of 10 μM unlabelled CP55,940. After drying the filter plate at 50° C. for at least 60 min, the filter-bound radioactivity was determined by scintillation spectrometry using the 1450 MicroBeta Plate Counter (Perkin Elmer, Boston, Mass.). From the dose-response experiments, the IC50 values were determined (see Table 1, CB2 IC50).

human CB1 receptor [1] = biological target: T2, human CB1 receptor (Homo sapiens, UniProt P21554); assay: biochemical; type: binding; parameters: host or cells: CHO-K1 (Chinese hamster ovary) cells, stably transfected; membranes prepared in house; settings: for Selectivity CB1: fold difference in binding between CB1 and CB2, shown in the column of the receptor with higher affinity, 1.00 in both = about the same affinity
human CB1 receptor [2] = biological target: T2, human CB1 receptor; assay: PathHunter β-Arrestin functional assay, CB1 receptor, agonist mode; type: cell-based
Description: (§1) In the PathHunter® β-Arrestin system from DiscoveRx (Eurofins, Fremont, Calif.), a small peptide, the ProLink™ (PK), is fused to the intracellular sequence of a GPCR target, and a complementing peptide, the enzyme acceptor (EA) fragment, is fused to β-arrestin. After binding to its specific ligand, the GPCR target recruits β-arrestin, forcing the complementation of the two β-galactosidase enzyme fragments (EA and PK) to produce a functional β-galactosidase enzyme. The enzyme activity, and thus the amount of ligand bound to the GPCR, is detected with a single addition of a reagent cocktail to lyse the cells and produce a chemiluminescent signal before being analyzed using a traditional plate reader.
(§2) PathHunter® CHO-K1 CNR1 β-Arrestin cells (DiscoverRx, cat. Number 93-0959C2) stably expressing CB1 receptor (CB1R) were grown in Ham's F12 medium containing 10% fetal bovine serum (FBS), 1% penicillin/streptomycin, 300 μg/mL Hygromycin B and 800 μg/mL geneticin (G418) and maintained in 37° C. incubators at 5% CO2. […]
(§3) The incubation was terminated by adding the detection reagent (19 parts of 1% CHAPS, 5 parts Emerald-II and 1 part Galacton-Star), equivalent to 50% of the assay volume to each wells. Plates were incubated for 1 hour in the dark at room temperature, followed by chemiluminescence detection using a microplate reader.
(§4) Data were analysed by generating nonlinear regression curves. […]

human CB1 receptor [3] = biological target: T2, human CB1 receptor; assay: PathHunter β-Arrestin functional assay, CB1 receptor, antagonist mode; type: cell-based
Description: as §1, §2, §3, §4

T1 sequence (P34972 whole entry): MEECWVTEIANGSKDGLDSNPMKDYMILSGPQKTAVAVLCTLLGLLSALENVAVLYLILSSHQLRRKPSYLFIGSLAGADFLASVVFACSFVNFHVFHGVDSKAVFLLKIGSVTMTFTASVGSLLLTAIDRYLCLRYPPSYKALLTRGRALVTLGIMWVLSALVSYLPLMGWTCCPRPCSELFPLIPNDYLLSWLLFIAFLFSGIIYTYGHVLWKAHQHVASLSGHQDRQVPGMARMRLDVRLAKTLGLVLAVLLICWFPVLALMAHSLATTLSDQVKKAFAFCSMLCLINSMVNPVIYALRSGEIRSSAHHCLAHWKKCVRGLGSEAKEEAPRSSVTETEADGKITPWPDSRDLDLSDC
T2 sequence (P21554 whole entry): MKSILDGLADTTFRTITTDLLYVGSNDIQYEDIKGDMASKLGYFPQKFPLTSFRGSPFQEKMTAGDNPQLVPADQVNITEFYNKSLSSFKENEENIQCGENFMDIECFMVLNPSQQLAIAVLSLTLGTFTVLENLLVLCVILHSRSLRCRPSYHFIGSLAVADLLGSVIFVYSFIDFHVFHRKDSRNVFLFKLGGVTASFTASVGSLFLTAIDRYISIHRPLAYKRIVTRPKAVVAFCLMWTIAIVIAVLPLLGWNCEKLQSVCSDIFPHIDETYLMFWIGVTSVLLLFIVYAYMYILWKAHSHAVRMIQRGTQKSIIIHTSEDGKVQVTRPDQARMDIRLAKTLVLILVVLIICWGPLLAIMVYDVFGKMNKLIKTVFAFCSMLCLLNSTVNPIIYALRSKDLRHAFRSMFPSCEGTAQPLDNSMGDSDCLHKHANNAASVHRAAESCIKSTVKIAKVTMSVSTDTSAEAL

| Structure (SMILES) | IC50 (human CB2 receptor) [µM] | Selectivity CB2 (human CB2 receptor) [fold] | IC50 (human CB1 receptor [1]) [µM] | Selectivity CB1 (human CB1 receptor [1]) [fold] | EC50 (human CB1 receptor [2]) [µM] | relative efficacy in comparison to CP55,940 (human CB1 receptor [2]; agonist mode, normalized to CP55,940) | IC50 (human CB1 receptor [3]) [µM] | relative inhibition in comparison to rimonabant (human CB1 receptor [3]; antagonist mode, normalized to rimonabant) |
| --- | --- | --- | --- | --- | --- | --- | --- | --- |
| CCCCCc1cc2c(c3c1C(=O)OCO3)[C@@H]1C=C(C)CC[C@H]1C(C)(C)O2 [Compound 1b, 8,8,11-trimethyl-5-pentyl-8a,9,10,12a-tetrahydro-4H,8H-benzo[c][1,3]dioxino[4,5-f]chromen-4-one] | < 0.5 | 1.80 | 0.5 to 0.99 | – | – | – | – | – |
| CCCCCc1cc2c(c3c1C(=O)OC(C)(C)O3)[C@@H]1C=C(C)CC[C@H]1C(C)(C)O2 [Compound 2b, 2,2,8,8,11-pentamethyl-5-pentyl-8a,9,10,12a-tetrahydro-4H,8H-benzo[c][1,3]dioxino[4,5-f]chromen-4-one] | < 0.5 | 1.03 | < 0.5 | – | – | – | – | – |
| CCCCCc1cc2c(c3c1C(=O)OC(c1ccccc1)O3)[C@@H]1C=C(C)CC[C@H]1C(C)(C)O2 (stereo partly shown) [Compound 3b, 8,8,11-trimethyl-5-pentyl-2-phenyl-8a,9,10,12a-tetrahydro-4H,8H-benzo[c][1,3]dioxino[4,5-f]chromen-4-one] | 1 to 4.99 | – | 1 to 4.99 | 1.62 | – | – | – | – |
| CCCCCc1cc2c(c3c1C(=O)OC(CC(C)=O)(c1ccccc1)O3)[C@@H]1C=C(C)CC[C@H]1C(C)(C)O2 (stereo partly shown) [Compound 12b, 8,8,11-trimethyl-2-(2-oxopropyl)-5-pentyl-2-phenyl-8a,9,10,12a-tetrahydro-4H,8H-benzo[c][1,3]dioxino[4,5-f]chromen-4-one] | > 5 | 1.33 | > 5 | – | – | – | – | – |
| CCCCCc1cc2c(c3c1C(=O)OC(CC(C)=O)(c1ccc(F)cc1)O3)[C@@H]1C=C(C)CC[C@H]1C(C)(C)O2 (stereo partly shown) [Compound 13b, 2-(4-fluorophenyl)-8,8,11-trimethyl-2-(2-oxopropyl)-5-pentyl-8a,9,10,12a-tetrahydro-4H,8H-benzo[c][1,3]dioxino[4,5-f]chromen-4-one] | 1 to 4.99 | 1.00 | 1 to 4.99 | 1.00 | – | – | – | – |
| CCCCCc1cc2c(c3c1C(=O)OC(CC(C)=O)O3)[C@@H]1C=C(C)CC[C@H]1C(C)(C)O2 (stereo partly shown) [Compound 14b, 8,8,11-trimethyl-2-(2-oxopropyl)-5-pentyl-8a,9,10,12a-tetrahydro-4H,8H-benzo[c][1,3]dioxino[4,5-f]chromen-4-one] | 1 to 4.99 | – | 1 to 4.99 | 2.69 | – | – | – | – |
| CCCCCc1cc2c(c3c1C(=O)OC(C)O3)[C@@H]1C=C(C)CC[C@H]1C(C)(C)O2 (stereo partly shown) [Compound 16b, 2,8,8,11-tetramethyl-5-pentyl-8a,9,10,12a-tetrahydro-4H,8H-benzo[c][1,3]dioxino[4,5-f]chromen-4-one] | < 0.5 | – | < 0.5 | 1.50 | ~0.252 | about 7% | ~3 | about 35% |
| CCCCCc1cc2c(c3c1C(=O)OC(CC)O3)[C@@H]1C=C(C)CC[C@H]1C(C)(C)O2 (stereo partly shown) [Compound 17b, 2-ethyl-8,8,11-trimethyl-5-pentyl-8a,9,10,12a-tetrahydro-4H,8H-benzo[c][1,3]dioxino[4,5-f]chromen-4-one] | < 0.5 | 12.73 | 1 to 4.99 | – | – | – | – | – |
| CCCCCc1cc2c(c3c1C(=O)OC(CC(C)=O)(c1ccc(OC)cc1)O3)[C@@H]1C=C(C)CC[C@H]1C(C)(C)O2 (stereo partly shown) [Compound 21b, 2-(4-methoxyphenyl)-8,8,11-trimethyl-2-(2-oxopropyl)-5-pentyl-8a,9,10,12a-tetrahydro-4H,8H-benzo[c][1,3]dioxino[4,5-f]chromen-4-one] | 1 to 4.99 | 1.00 | 1 to 4.99 | 1.00 | – | – | – | – |
| CCCCCc1cc2c(c3c1C(=O)OC(CC(C)=O)(c1ccc(Cl)cc1)O3)[C@@H]1C=C(C)CC[C@H]1C(C)(C)O2 (stereo partly shown) [Compound 23b, 2-(4-chlorophenyl)-8,8,11-trimethyl-2-(2-oxopropyl)-5-pentyl-8a,9,10,12a-tetrahydro-4H,8H-benzo[c][1,3]dioxino[4,5-f]chromen-4-one] | 1 to 4.99 | 1.00 | 1 to 4.99 | 1.00 | – | – | – | – |
